Experimental data published in patent publication US10829520B2, “Beta-hairpin peptidomimetics” (POLYPHOR AG, priority 2015, dated 2020).
Where a SMILES comes first, the peptide text is derived from it. Bridges are numbered along the chain shown (N, C = ends). [ ]: non-standard residue; d: D form. The star is where a group is joined. X2 = CN(C)C(=N[C@@H](Cc1c[nH]c2ccccc12)C(=O)*)N(C)C; Ala(cPent) = N[C@@H](CC1CCCC1)C(=O)O; dHyp = O=C(O)[C@H]1C[C@H](O)CN1; Dab = NCC[C@H](N)C(=O)O

Columns and labels:
Assay type in all cases: cell-based
[1] = test system: Acinetobacter baumannii 872842; conditions: 872842
[2] = test system: Acinetobacter baumannii DSM 30008; conditions: DSM 30008
Procedure, shortened: (§1)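 CLSI broth microdilution; MH-II (cation-adjusted) + 0.002% P-80; ~10^6 CFU/mL inoculum; peptide two-fold serial dilutions; 18-20 h, 35° C; MIC = no visible growth, μg/mL.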

[3] = test system: Escherichia coli 926415; conditions: 926415
[4] = test system: Escherichia coli ATCC 25922; conditions: ATCC 25922
Procedure, shortened: as §1

[5] = test system: Klebsiella pneumoniae 968733; conditions: 968733
[6] = test system: Klebsiella pneumoniae SSI #3010; conditions: SSI #3010
Procedure, shortened: as §1

[7] = test system: Pseudomonas aeruginosa ATCC 27853; conditions: ATCC 27853
Procedure, shortened: as §1

[8] = test system: human red blood cells (hRBC); assay: Hemolysis of human red blood cells; conditions: red cells of human, 1 h, 100 μg/mL
Procedure, shortened: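 hRBC washed 3× PBS; 20% v/v, ~0.9×10^9 cells/mL final. Peptide 100 μg/mL, 1 h, 37° C., 300 rpm. Spin, supernatant diluted 8×, OD540. 0% = PBS + 0.001% acetic acid; 100% = 2.5% Triton X-100. % hemolysis = OD540 peptide/OD540 full lysis × 100.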

Row | SMILES | Acinetobacter baumannii 872842 MIC [1] [µg/mL] | Acinetobacter baumannii DSM 30008 MIC [2] [µg/mL] | Escherichia coli 926415 MIC [3] [µg/mL] | Escherichia coli ATCC 25922 MIC [4] [µg/mL] | Klebsiella pneumoniae 968733 MIC [5] [µg/mL] | Klebsiella pneumoniae SSI #3010 MIC [6] [µg/mL] | Pseudomonas aeruginosa ATCC 27853 MIC [7] [µg/mL] | Hemolysis at 100 μg/mL [8] [%]
1 | CC(C)C[C@@H]1NC(=O)[C@H]([C@@H](C)O)NC(=O)[C@H]2CCCN2C(=O)[C@H](CO)NC(=O)[C@H](C)NC(=O)[C@H](C(C)C)NC(=O)[C@@H](NC(=O)[C@@H](N)Cc2c[nH]c3ccccc23)CSSC[C@@H](C(=O)NCC(=O)N[C@@H](CCN)C(=O)N[C@H](C(=O)N[C@@H](CCN)C(=O)N[C@H]2CCNC(=O)[C@H]([C@@H](C)O)NC(=O)[C@H](CCN)NC(=O)[C@H](CCN)NC(=O)[C@H](CC(C)C)NC(=O)[C@@H](CC(C)C)NC(=O)[C@H](CCN)NC2=O)[C@@H](C)O)NC(=O)[C@H](Cc2ccc(O)cc2)NC(=O)[C@H](CO)NC1=O [Ex. 126] (H-WCVAS[dP]TLSYCG[Dab]T[Dab][Dab][Dab][dL]L[Dab][Dab]T; disulfide 2-11; lactam 16-C) | 0.125 | 0.0625 | 0.5 | 0.0625 | 0.5 | 0.0625 | 0.5 | 1
2 | CC(C)C[C@@H]1NC(=O)[C@H](CCN)NC(=O)[C@H]2CCCN2C(=O)[C@H](CO)NC(=O)[C@H](C)NC(=O)[C@H](C(C)C)NC(=O)[C@@H](NC(=O)[C@@H](N)Cc2c[nH]c3ccccc23)CSSC[C@@H](C(=O)N[C@@H](CCN)C(=O)N[C@@H](CCN)C(=O)N[C@H](C(=O)N[C@@H](CCN)C(=O)N[C@H]2CCNC(=O)[C@H]([C@@H](C)O)NC(=O)[C@H](CCN)NC(=O)[C@H](CCN)NC(=O)[C@H](CC(C)C)NC(=O)[C@@H](CC(C)C)NC(=O)[C@H](CCN)NC2=O)[C@@H](C)O)NC(=O)[C@H](Cc2ccc(O)cc2)NC(=O)[C@H](CO)NC1=O [Ex. 127] (H-WCVAS[dP][Dab]LSYC[Dab][Dab]T[Dab][Dab][Dab][dL]L[Dab][Dab]T; disulfide 2-11; lactam 16-C) | 0.25 | 0.25 | 2 | 1 | 8 | 0.25 | 0.5 | 1
3 | CC(C)C[C@@H]1NC(=O)[C@@H](CC(C)C)NC(=O)[C@H](CCN)NC(=O)[C@@H](NC(=O)[C@H](CCN)NC(=O)[C@@H](NC(=O)[C@H](CCN)NC(=O)[C@H](CCN)NC(=O)[C@@H]2CSSC[C@H](NC(=O)[C@@H](N)Cc3c[nH]c4ccccc34)C(=O)N[C@@H](C(C)C)C(=O)N[C@@H](C)C(=O)N[C@@H](CO)C(=O)NCC(=O)N3CCC[C@H]3C(=O)N[C@@H](CC(C)C)C(=O)N[C@@H](CO)C(=O)N[C@@H](Cc3ccc(O)cc3)C(=O)N2)[C@@H](C)O)CCNC(=O)[C@H]([C@@H](C)O)NC(=O)[C@H](CCN)NC(=O)[C@H](CCN)NC1=O [Ex. 128] (H-WCVASGPLSYC[Dab][Dab]T[Dab][Dab][Dab][dL]L[Dab][Dab]T; disulfide 2-11; lactam 16-C) | 0.25 | 0.125 | 0.5 | 0.125 | 4 | 0.125 | 0.5 | 1
4 | CC(C)C[C@@H]1NC(=O)[C@H](C)NC(=O)[C@H]2C[C@H](O)CN2C(=O)[C@H](CO)NC(=O)[C@H](C)NC(=O)[C@H](C(C)C)NC(=O)[C@@H](NC(=O)[C@@H](N)Cc2c[nH]c3ccccc23)CSSC[C@@H](C(=O)N[C@@H](CCN)C(=O)N[C@@H](CCN)C(=O)N[C@H](C(=O)N[C@@H](CCN)C(=O)N[C@H]2CCNC(=O)[C@H]([C@@H](C)O)NC(=O)[C@H](CCN)NC(=O)[C@H](CCN)NC(=O)[C@H](CC(C)C)NC(=O)[C@@H](CC(C)C)NC(=O)[C@H](CCN)NC2=O)[C@@H](C)O)NC(=O)[C@H](Cc2ccc(O)cc2)NC(=O)[C@H](CO)NC1=O [Ex. 129] (H-WCVAS[dHyp]ALSYC[Dab][Dab]T[Dab][Dab][Dab][dL]L[Dab][Dab]T; disulfide 2-11; lactam 16-C) | 0.0625 | 0.125 | 0.25 | 0.0625 | 2 | 0.125 | 0.125 | <1
5 | CC(C)C[C@@H]1NC(=O)[C@@H](CC(C)C)NC(=O)[C@H](CCN)NC(=O)[C@@H](NC(=O)[C@H](CCN)NC(=O)[C@@H](NC(=O)[C@H](CCN)NC(=O)CNC(=O)[C@@H]2CSSC[C@H](NC(=O)[C@@H](N)Cc3c[nH]c4ccccc34)C(=O)N[C@@H](C(C)C)C(=O)N[C@@H](C)C(=O)N[C@@H](CO)C(=O)N[C@H](CO)C(=O)N3CCC[C@H]3C(=O)N[C@@H](CC(C)C)C(=O)N[C@@H](CO)C(=O)N[C@@H](Cc3ccc(O)cc3)C(=O)N2)[C@@H](C)O)CCNC(=O)[C@H]([C@@H](C)O)NC(=O)[C@H](CCN)NC(=O)[C@H](CCN)NC1=O [Ex. 130] (H-WCVAS[dS]PLSYCG[Dab]T[Dab][Dab][Dab][dL]L[Dab][Dab]T; disulfide 2-11; lactam 16-C) | 0.0625 | 0.0625 | 0.25 | 0.0625 | 0.125 | 0.0625 | 0.25 | <1
6 | CC(C)C[C@@H]1NC(=O)[C@@H](CC(C)C)NC(=O)[C@H](CCN)NC(=O)[C@@H](NC(=O)[C@H](CCN)NC(=O)[C@@H](NC(=O)[C@H](CCN)NC(=O)CNC(=O)[C@@H]2CSSC[C@H](NC(=O)[C@@H](N)Cc3c[nH]c4ccccc34)C(=O)N[C@@H](C(C)C)C(=O)N[C@@H](C)C(=O)N[C@@H](CO)C(=O)N3CCC[C@@H]3C(=O)N3CCC[C@H]3C(=O)N[C@@H](CC(C)C)C(=O)N[C@@H](CO)C(=O)N[C@@H](Cc3ccc(O)cc3)C(=O)N2)[C@@H](C)O)CCNC(=O)[C@H]([C@@H](C)O)NC(=O)[C@H](CCN)NC(=O)[C@H](CCN)NC1=O [Ex. 131] (H-WCVAS[dP]PLSYCG[Dab]T[Dab][Dab][Dab][dL]L[Dab][Dab]T; disulfide 2-11; lactam 16-C) | 0.125 | 0.125 | 0.25 | 0.0625 | 0.25 | 0.125 | 0.5 | <1
7 | CC(C)C[C@@H]1NC(=O)[C@@H](Cc2ccccc2)NC(=O)[C@H](CCN)NC(=O)[C@@H](NC(=O)[C@H](CCN)NC(=O)[C@@H](NC(=O)[C@H](CCN)NC(=O)CNC(=O)[C@@H]2CSSC[C@H](NC(=O)[C@@H](N)Cc3c[nH]c4ccccc34)C(=O)N[C@@H](C(C)C)C(=O)N[C@@H](C)C(=O)N[C@@H](CO)C(=O)N3CCC[C@@H]3C(=O)N3CCC[C@H]3C(=O)N[C@@H](CC3CCCC3)C(=O)N[C@@H](CO)C(=O)N[C@@H](Cc3ccc(O)cc3)C(=O)N2)[C@@H](C)O)CCNC(=O)[C@H]([C@@H](C)O)NC(=O)[C@H](CCN)NC(=O)[C@H](CCN)NC1=O [Ex. 132] (H-WCVAS[dP]P[Ala(cPent)]SYCG[Dab]T[Dab][Dab][Dab][dF]L[Dab][Dab]T; disulfide 2-11; lactam 16-C) | 0.0625 | 0.0625 | 0.1255 | 0.0625 | 0.125 | 0.125 | 0.25 | <1
8 | CC(C)C[C@@H]1NC(=O)[C@@H](CC(C)C)NC(=O)[C@H](CCN)NC(=O)[C@@H](NC(=O)[C@H](CCN)NC(=O)[C@@H](NC(=O)[C@H](CCN)NC(=O)CNC(=O)[C@@H]2CSSC[C@H](NC(=O)[C@H](Cc3c[nH]c4ccccc34)N=C(N(C)C)N(C)C)C(=O)N[C@@H](C(C)C)C(=O)N[C@@H](C)C(=O)N[C@@H](CO)C(=O)N3CCC[C@@H]3C(=O)N3CCC[C@H]3C(=O)N[C@@H](CC(C)C)C(=O)N[C@@H](CO)C(=O)N[C@@H](Cc3ccc(O)cc3)C(=O)N2)[C@@H](C)O)CCNC(=O)[C@H]([C@@H](C)O)NC(=O)[C@H](CCN)NC(=O)[C@H](CCN)NC1=O [Ex. 133] (X2-CVAS[dP]PLSYCG[Dab]T[Dab][Dab][Dab][dL]L[Dab][Dab]T; disulfide 1-10; lactam 15-C) | 4 | 1 | 4 | 0.25 | 8 | 1 | 1 | <1
